The subject of test [1] is IL-8 production by TNF-α in ARPE-19. As to the kind of experiment: Inhibitory effect on IL-8 production by TNF-α from retinal pigment epithelial cells. The format is cell-based, human. The note with it: all-trans form content 50 μM, 16 hours, TNF-α 4 hours, FIG. 5, n=3. An excerpt:
Age-related macular degeneration is known to involve the accumulation of drusen under the retinal pigment epithelium. Drusen attract macrophages and macrophages secrete TNF-α. TNF-α acts on the retinal pigment epithelium and its peripheral tissue, and the cells subsequently produce a variety of cytokines and cause inflammation (Mol Vis. 2008 14: 2292-303). A typical cytokine that is involved in neutrophil migration and spreads inflammation is interleukin-8 (IL-8). In this experiment, the inhibitory effect of GGA on IL-8 production by TNF-α was examined using a human-derived retinal pigment epithelial cell line, ARPE-19. […]
After 4 hours of incubation, 150 μL of the cell culture supernatant was collected and stored at −80° C. […] Then, 100 μL of an equivalent mixture of a cell viability detection reagent Cell Titer-Glo and PBS was added to each well and the luminescence produced by the reaction with ATP in living cells was measured with a luminometer. From the measured luminescence, the cell viability was calculated by the following formula.
Cell viability (%)=100×[(luminescence of GGA-treated group)/(luminescence of base-treated group)]
The stored cell culture supernatant was allowed to warm to room temperature, and the IL-8 concentration was quantified with Human CXCL8/IL-8 Quantikine ELISA Kit (R&D Systems). […]

For test [2], the system named is rat models with glaucoma induced by NMDA. The test is described as follows: Protective effect for retinal ganglion cells against nerve damage by NMDA (thickness of inner plexiform layer). The format is in vivo, Sprague-Dawley (SD) rats. An excerpt: In recent years the glutamate analogue NMDA (N-methyl-D-aspartate) has been widely reported to be one of causative agents of neurodegenerative diseases including Alzheimer's disease. In the ophthalmic field, NMDA is considered to be involved in optic nerve damage in glaucoma (Brain Research Bulletin, 81 (2010) 349-358). Accordingly, in this experiment rat models with glaucoma induced by NMDA were used to evaluate the neuroprotective effect of GGA.
To Sprague-Dawley (SD) rats, the all-trans form, the 5Z-mono-cis form and teprenone were separately pre-administered by oral administration (Test Example 1), intravitreal administration (Test Example 2) or ocular instillation administration (Test Example 3) and 5 μL of NMDA was administered into the vitreous body to induce nerve damage. For Test Example 2, a marketed therapeutic eye drop for glaucoma, AIPHAGAN (trade name), was intravitreally administered as a positive control once a day for five days. For each of Test Examples, a base not containing GGA or AIPHAGAN was administered as a control in the same manner as described above.
The dosage and regimen of Test Examples 1 to 3 are shown in Table 1 and the constitution of the base used in each tests are shown in Table 2.
Three days after administration of NMDA, the eyeballs were harvested, fixed with half Karnovsky's fixative for 24 hours, embedded in paraffin, thin sectioned and stained with hematoxylin-eosin (HE) to prepare histopathological sections. The histological sections were observed under an optical microscope and the thickness (μm) of the inner plexiform layer (IPL) of the retina was measured. From the thickness of the inner plexiform layer (IPL) of the retina, the neuroprotective effects of the test preparations were evaluated.

Each structure is given as a SMILES string.

For the compound `CC(=O)CC/C=C(\C)CC/C=C(\C)CC/C=C(\C)CCC=C(C)C` [all-trans form, (5E,9E,13E)-6,10,14,18-tetramethyl-5,9,13,17-nonadecatetrae n-2-one], the “Inhibitory effect on IL-8 production compared with GGA 6:4” value in test [1] is listed as “significant inhibitory effect on IL-8 production”. The “Neuroprotective effect against nerve damage by NMDA compared with the base (IPL thickness)” value in test [2] (Test Example 1: oral, 800 mg/kg, 2 days, once per day, NMDA 4 mM, FIG. 6) was “significant neuroprotective effects”; in test [2] (Test Example 2: intravitreal, 0.05% w/v, 5 days, once per day, NMDA 40 mM, FIG. 7), “significant neuroprotective effects”; in test [2] (Test Example 3: ocular instillation, 1% w/v, 5 days, 5 times per day, NMDA 4 mM, FIG. 9) it was “significant neuroprotective effect”. The “Neuroprotective effect compared with AIPHAGAN Ophthalmic Solution 0.1%” value in test [2] (Test Example 2: intravitreal, 0.05% w/v, 5 days, NMDA 40 mM, FIG. 7) is reported as “significantly superior neuroprotective effect”.

These data come from patent publication US20140350119A1, “OPHTHALMIC COMPOSITION COMPRISING GERANYLGERANYLACETONE” (ROHTO PHARMACEUTICAL CO., LTD., priority 2012, published 2014).
